Measurements from the NIST ThermoML archive (doi:10.1021/je900050z).
“And” between values parts separate entries of the source, which are not always exact repeats. Equal entries are not always repeated.

Details: Liquid

CCCC(C)O (stereo unspecified) [pentan-2-ol]
Details	vapor or sublimation pressure
323.84 K	4.16 kPa
324.19 K	4.41 kPa
324.55 K	4.39 kPa
325.09 K	4.67 kPa
326 K	4.93 kPa
326.22 K	4.89 kPa
326.99 K	5.27 kPa
327.15 K	5.2 kPa
327.64 K	5.43 kPa
328.19 K	5.71 kPa
328.23 K	5.64 kPa
329.05 K	5.91 kPa
329.11 K	5.95 kPa and 6.04 kPa
329.66 K	6.16 kPa
329.9 K	6.33 kPa
330.86 K	6.71 kPa
331.78 K	7.08 kPa
332.29 K	7.17 kPa
332.55 K	7.4 kPa
332.61 K	7.31 kPa
332.92 K	7.43 kPa
333.15 K	7.52 kPa
333.37 K	7.76 kPa
333.88 K	7.99 kPa
334.61 K	8.33 kPa
335.52 K	8.77 kPa
336.34 K	9.17 kPa
336.37 K	9.19 kPa
337.2 K	9.59 kPa
337.85 K	9.95 kPa
338.74 K	10.43 kPa
339.44 K	10.81 kPa
340.1 K	11.21 kPa
340.82 K	11.67 kPa
341.54 K	12.11 kPa
342.2 K	12.52 kPa
342.83 K	12.77 kPa
342.88 K	12.97 kPa
343.15 K	13 kPa
343.26 K	13.07 kPa
343.3 K	13.11 kPa
343.38 K	13.16 kPa
344.38 K	13.99 kPa
345.27 K	14.65 kPa
346.15 K	15.31 kPa
347.02 K	15.96 kPa
347.8 K	16.63 kPa
348.68 K	17.32 kPa
349.38 K	17.95 kPa
350.16 K	18.63 kPa
350.93 K	19.31 kPa
351.64 K	19.96 kPa
351.88 K	20 kPa
352.33 K	20.43 kPa
352.6 K	20.65 kPa
352.7 K	20.72 kPa
352.76 K	20.83 kPa
352.89 K	20.96 kPa
353.05 K	21.12 kPa
353.1 K	21.19 kPa
353.15 K	21.2 kPa
353.35 K	21.4 kPa
354.12 K	22.16 kPa
354.72 K	22.83 kPa
355.42 K	23.55 kPa
355.92 K	24.12 kPa
356.39 K	24.44 kPa
356.55 K	24.84 kPa
357.15 K	25.47 kPa
357.76 K	26.2 kPa
357.79 K	26 kPa
358.23 K	26.75 kPa
358.83 K	27.45 kPa
358.88 K	27.32 kPa
359.01 K	27.45 kPa
359.53 K	28.19 kPa
359.91 K	28.67 kPa
360.35 K	29.25 kPa
360.5 K	29.41 kPa
361.12 K	30.29 kPa
361.45 K	30.68 kPa
362.1 K	31.59 kPa
362.5 K	32.13 kPa
362.93 K	32.73 kPa
363.38 K	33.35 kPa
363.85 K	34.05 kPa
364.28 K	34.64 kPa
364.84 K	35.47 kPa
365.13 K	35.95 kPa
365.62 K	36.71 kPa
366.01 K	37.32 kPa
366.4 K	37.95 kPa
366.86 K	38.64 kPa
367.24 K	39.31 kPa
367.65 K	39.97 kPa
368.06 K	40.64 kPa
368.44 K	41.27 kPa
368.85 K	41.96 kPa
369.31 K	42.73 kPa
369.58 K	43.23 kPa
370.05 K	44.05 kPa
370.46 K	44.75 kPa
370.74 K	45.4 kPa
371.07 K	45.91 kPa
371.47 K	46.64 kPa
371.82 K	47.45 kPa
372.15 K	47.93 kPa
372.5 K	48.64 kPa
372.91 K	49.31 kPa
373.16 K	49.87 kPa
373.57 K	50.71 kPa
373.88 K	51.25 kPa
374.25 K	52.03 kPa
374.47 K	52.55 kPa
374.85 K	53.37 kPa
375.14 K	53.95 kPa
375.44 K	54.67 kPa
375.83 K	55.37 kPa
376.13 K	56.01 kPa
376.47 K	56.71 kPa
376.74 K	57.36 kPa
377.07 K	58 kPa
377.32 K	58.64 kPa
377.65 K	59.32 kPa
377.91 K	59.97 kPa
378.22 K	60.67 kPa
378.56 K	61.4 kPa
378.81 K	61.97 kPa
379.04 K	62.61 kPa
379.39 K	63.39 kPa
379.6 K	63.91 kPa
379.89 K	64.6 kPa
380.13 K	65.2 kPa
380.47 K	65.99 kPa
380.7 K	66.63 kPa
381 K	67.31 kPa
381.26 K	68.01 kPa
381.53 K	68.67 kPa
381.76 K	69.31 kPa
382.08 K	70.21 kPa
382.28 K	70.63 kPa
382.55 K	71.31 kPa
382.78 K	71.95 kPa
383.05 K	72.65 kPa
383.29 K	73.35 kPa
383.53 K	73.93 kPa
383.76 K	74.63 kPa
384.09 K	75.48 kPa
384.26 K	75.99 kPa
384.5 K	76.63 kPa
384.74 K	77.35 kPa
384.95 K	77.93 kPa
385.42 K	79.27 kPa
385.65 K	80 kPa
385.87 K	80.56 kPa
386.24 K	81.79 kPa
386.32 K	81.88 kPa
386.54 K	82.68 kPa
386.76 K	83.23 kPa
386.96 K	84.05 kPa
387.37 K	85.27 kPa
387.8 K	86.61 kPa
388.23 K	88 kPa
388.66 K	89.39 kPa
389.07 K	90.69 kPa
389.51 K	92.16 kPa
389.9 K	93.44 kPa
390.26 K	94.61 kPa
390.65 K	95.95 kPa
391.05 K	97.27 kPa
391.46 K	98.71 kPa
